In patent publication US20170157212A1, “CDK MODULATORS AND METHODS FOR THE TREATMENT OF CANCER” (Salk Institute for Biological Studies, priority 2015, published 2017):

Molecular target: T1, affinity-purified CDK12 kinase complex (Homo sapiens, UniProt Q9NYV4)
T1 construct: made in house
Test: In vitro kinase assay: CDK12 phosphorylation of RNAPII GST-CTD
Type: biochemical
Conditions: human GST-CTD (52 repeat), increasing levels of recombinant CRIF1, immunoblot, dose-dependent
From the text: (A) CRIF1 and CDK12 have opposite effects on global RNAPII CTD-Ser2P levels in vivo. U2OS cells were transfected with indicated siRNAs for 48 hr, and RNAPII phosphorylation was monitored by immunoblot using phospho-specific CTD (Ser2P and Ser5P) antibodies. (B) Knockdown of CRIF1 up-regulates CHK1 expression and induction of p53. […] (C) Analysis of steady-state mRNA levels by qRT-PCR in extracts from U2OS cells exposed to control (CTL) or CRIF1-specific siRNAs, as indicated. (D) Depletion of CRIF1 enhances 4E-BP1 phosphorylation at S65 and T70 in vivo, as assessed by immunoblot using phospho-specific antibodies. (E) CRIF1 inhibits RNAPII CTD-Ser2 phosphorylation by CDK12 complexes in vitro. The human GST-CTD (52 repeat) protein was incubated in vitro with the affinity-purified HA-CDK12 kinase complex in the absence or presence of increasing levels of purified recombinant CRIF1, and analyzed by immunoblot with the indicated antisera. […] Analysis of GST-CTD Ser2 phosphorylation was carried out as described in (E), using the affinity-purified FLAG-CDK9 kinase. (G) CRIF1 inhibits 4E-BP1 phosphorylation by CDK12 in vitro. […] was monitored by immunoblot in the absence or in the presence of different levels of affinity-purified recombinant CRIF1. […]

T1 sequence (Q9NYV4 whole entry): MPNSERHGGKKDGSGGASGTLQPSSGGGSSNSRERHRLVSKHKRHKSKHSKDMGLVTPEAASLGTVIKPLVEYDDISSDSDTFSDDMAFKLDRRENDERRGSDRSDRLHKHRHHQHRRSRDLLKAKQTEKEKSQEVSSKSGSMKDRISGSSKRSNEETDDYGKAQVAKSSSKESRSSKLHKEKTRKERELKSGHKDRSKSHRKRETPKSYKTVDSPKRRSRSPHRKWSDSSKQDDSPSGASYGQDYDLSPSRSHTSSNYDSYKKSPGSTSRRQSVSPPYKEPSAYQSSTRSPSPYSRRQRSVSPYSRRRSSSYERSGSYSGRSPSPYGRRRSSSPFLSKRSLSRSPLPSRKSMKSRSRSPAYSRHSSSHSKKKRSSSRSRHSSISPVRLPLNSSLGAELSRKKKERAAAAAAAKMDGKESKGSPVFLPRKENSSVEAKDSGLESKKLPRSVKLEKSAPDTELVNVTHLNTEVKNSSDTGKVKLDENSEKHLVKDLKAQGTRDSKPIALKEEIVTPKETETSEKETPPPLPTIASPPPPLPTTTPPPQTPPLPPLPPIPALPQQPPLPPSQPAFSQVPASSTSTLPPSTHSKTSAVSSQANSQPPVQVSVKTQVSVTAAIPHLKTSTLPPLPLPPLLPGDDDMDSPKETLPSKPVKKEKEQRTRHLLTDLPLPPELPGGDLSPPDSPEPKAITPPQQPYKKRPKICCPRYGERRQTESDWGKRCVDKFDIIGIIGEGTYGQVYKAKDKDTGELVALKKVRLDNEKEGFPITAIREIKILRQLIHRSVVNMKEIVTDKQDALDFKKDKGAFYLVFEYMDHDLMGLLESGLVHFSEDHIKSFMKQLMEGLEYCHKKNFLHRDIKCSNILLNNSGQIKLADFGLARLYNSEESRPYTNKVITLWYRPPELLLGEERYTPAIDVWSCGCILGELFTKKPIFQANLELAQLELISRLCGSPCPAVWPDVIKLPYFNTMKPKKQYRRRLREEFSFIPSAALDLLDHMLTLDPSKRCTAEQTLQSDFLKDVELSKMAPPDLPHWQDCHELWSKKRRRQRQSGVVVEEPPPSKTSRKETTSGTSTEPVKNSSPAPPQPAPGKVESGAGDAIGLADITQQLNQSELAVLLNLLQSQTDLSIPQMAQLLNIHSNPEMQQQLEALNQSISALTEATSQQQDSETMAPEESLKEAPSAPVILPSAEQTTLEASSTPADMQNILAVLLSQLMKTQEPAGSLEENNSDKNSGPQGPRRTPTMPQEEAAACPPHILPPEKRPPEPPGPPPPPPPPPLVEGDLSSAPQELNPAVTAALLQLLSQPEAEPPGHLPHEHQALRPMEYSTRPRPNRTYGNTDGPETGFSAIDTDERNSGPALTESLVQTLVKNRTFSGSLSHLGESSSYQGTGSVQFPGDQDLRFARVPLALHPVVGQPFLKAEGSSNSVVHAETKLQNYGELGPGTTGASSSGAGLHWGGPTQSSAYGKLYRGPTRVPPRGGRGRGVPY
T1 sequence (O75909 whole entry partner): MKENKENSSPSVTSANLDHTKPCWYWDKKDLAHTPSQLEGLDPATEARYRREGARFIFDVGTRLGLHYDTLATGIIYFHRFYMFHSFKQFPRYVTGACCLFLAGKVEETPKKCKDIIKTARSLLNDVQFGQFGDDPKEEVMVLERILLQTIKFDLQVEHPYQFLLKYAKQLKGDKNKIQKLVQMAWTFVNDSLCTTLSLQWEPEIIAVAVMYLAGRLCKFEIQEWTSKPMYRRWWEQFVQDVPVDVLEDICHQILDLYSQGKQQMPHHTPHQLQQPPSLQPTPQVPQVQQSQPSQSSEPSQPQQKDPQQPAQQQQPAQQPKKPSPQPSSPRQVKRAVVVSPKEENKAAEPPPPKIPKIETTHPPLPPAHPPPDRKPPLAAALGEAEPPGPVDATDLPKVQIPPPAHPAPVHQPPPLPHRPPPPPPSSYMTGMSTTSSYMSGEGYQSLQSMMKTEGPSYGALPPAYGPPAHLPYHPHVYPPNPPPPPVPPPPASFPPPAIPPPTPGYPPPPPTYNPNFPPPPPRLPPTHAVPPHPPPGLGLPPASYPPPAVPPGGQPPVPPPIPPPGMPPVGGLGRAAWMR

- CDK12-mediated phosphorylation of the human GST-CTD substrate (RNAPII CTD-Ser2): inhibits
- CDK12-mediated phosphorylation of the human GST-CTD substrate (RNAPII CTD-Ser2) (listed as recombinant CRIF1): potently inhibited
Substance: Growth Arrest and DNA Damage-Inducible Proteins-Interacting Protein 1 [CRIF1]
